Experimental findings from US20230203060A1 (GENFLEET THERAPEUTICS (SHANGHAI) INC., priority 2020, published 2023) are described below.

SMILES strings stand for the structures. Counter-ions that a name gives are not always drawn.

In this assay the target is T1, KRAS G12C (Homo sapiens, UniProt P01116, G12C).
T1 construct: purchased Reactionbiology
T1 sequence (P01116 1-188 isoform P01116-2 G12C): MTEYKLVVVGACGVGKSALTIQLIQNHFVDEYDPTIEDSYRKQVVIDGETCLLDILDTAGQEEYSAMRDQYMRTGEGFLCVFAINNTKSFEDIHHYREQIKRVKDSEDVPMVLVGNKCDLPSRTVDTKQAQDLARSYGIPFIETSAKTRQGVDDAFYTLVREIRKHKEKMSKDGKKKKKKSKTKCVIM
Description: KRAS G12C NEA-HTRF experiment (SOS1-catalyzed displacement of GDP by GTP). The format is biochemical. In short, it runs like this:
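His-tagged KRAS G12C preloaded with DY647-GDP was preincubated 15 min at 20 °C with compound, then exchanged with SOS1 (0.2 μM working solution) and GTP (200 μM working solution) for 2 h at 20 °C in the dark. HTRF 665/615 nm ratio with anti-His-Tb was normalised to T0 and no-compound controls; IC50 by four-parameter fit.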
Regarding `C=CC(=O)N1CCN2C(=O)c3c(N4C[C@@H](O)CC4(C)C)nc(-c4c(O)cccc4F)c(Cl)c3OC[C@H]2C1` (single isomer, unassigned) [Z81], the half-maximal inhibitory concentration (IC50) stood at 6 nM.
Compound `C=CC(=O)N1CCN2C(=O)c3c(N4C[C@H](O)CC4(C)C)nc(-c4c(O)cccc4F)c(Cl)c3OC[C@H]2C1` (single isomer, unassigned) [Z82] had an IC50 of 44 nM.
`C=CC(=O)N1CCN2C(=O)c3c(N4CC(=O)N(C)CC4C)nc(-c4c(O)cccc4F)c(Cl)c3OC[C@H]2C1` (single isomer, unassigned) [Z221-1] yielded an IC50 of 14 nM.
`C=CC(=O)N1CCN2C(=O)c3c(N4CC(=O)N(C)CC4C)nc(-c4c(O)cccc4F)c(Cl)c3OC[C@H]2C1` (single isomer, unassigned) [Z221-2] gave a half-maximal inhibitory concentration (IC50) of 139 nM.
Under `C=CC(=O)N1CCN2C(=O)c3c(N4CC(N(C)C5COC5)CC4(C)C)nc(-c4c(O)cccc4F)c(Cl)c3OC[C@H]2C1` (single isomer, unassigned) [Z331-1] stands 5 nM; under `C=CC(=O)N1CCN2C(=O)c3c(N4CC(N(C)C5COC5)CC4(C)C)nc(-c4c(O)cccc4F)c(Cl)c3OC[C@H]2C1` (single isomer, unassigned) [Z331-2], 7 nM.
Under `C=CC(=O)N1CCN2C(=O)c3c(N4CCN(C)C[C@@H]4C)nc(-c4c(O)cccc4Cl)c(Cl)c3OC[C@H]2C1` (single isomer, unassigned) [Z455-1] stands 692 nM.
As to `C=CC(=O)N1CCN2C(=O)c3c(N4CCN(C)C[C@@H]4C)nc(-c4c(O)cccc4Cl)c(Cl)c3OC[C@H]2C1` (single isomer, unassigned) [Z455-2], the 50% inhibitory concentration (IC50) was determined as 46.3 nM.
In turn, `C=CC(=O)N1CCN2C(=O)c3c(N4CC(N5CCOCC5)CC4(C)C)nc(-c4ccccc4F)c(Cl)c3OC[C@H]2C1` (single isomer, unassigned) [Z468-2] came in with an IC50 of 46.5 nM.
Under `C=CC(=O)N1CCN2C(=O)c3c(N4C[C@H](N(C)C)CC4(C)C)nc(-c4ccccc4)c(Cl)c3OC[C@H]2C1` (single isomer, unassigned) [Z655-2] stands 128 nM.
The same measure for `C=CC(=O)N1CCN2C(=O)c3c(N4C[C@H](N(C)CCF)CC4(C)C)nc(-c4ccccc4F)c(Cl)c3OC[C@H]2C1` (single isomer, unassigned) [Z660-2]: 50.5 nM; for `C=CC(=O)N1CCN2C(=O)c3c(N4C[C@H](NC)CC4(C)C)nc(-c4ccccc4F)c(Cl)c3OC[C@H]2C1` (single isomer, unassigned) [Z661-2]: 511 nM.
The same measure for `C=CC(=O)N1CCN2C(=O)c3c(OC4CCN(C)CC4)nc(-c4c(O)cccc4F)c(Cl)c3OC[C@H]2C1` [Z61, (6aR)-8-acryloyl-4-chloro-3-(2-fluoro-6-hydroxyphenyl)-1-((1-methylpiperidin-4-yl)oxy)-6,6a,7,8,9,10-hexahydro-12H-pyrazino[2,1-c]pyrido[3,4-f][1,4]oxazepin-12-one]: 176 nM; for `C=CC(=O)N1CCN2C(=O)c3c(N4CC[C@@H]4C)nc(-c4c(O)cccc4F)c(Cl)c3OC[C@H]2C1` [Z68, (6aR)-8-acryloyl-1-((S)-2-methylazetidin-1-yl)-4-chloro-3-(2-fluoro-6-hydroxyphenyl)-6,6a,7,8,9,10-hexahydro-12H-pyrazino[2,1-c]pyrido[3,4-f][1,4]oxazepin-12-one]: 88 nM; for `C=CC(=O)N1CCN2C(=O)c3c(NC(C)(C)C)nc(-c4c(O)cccc4F)c(Cl)c3OC[C@H]2C1` [Z69, (6aR)-8-acryloyl-1-(tert-butylamino)-4-chloro-3-(2-fluoro-6-hydroxyphenyl)-6,6a,7,8,9,10-hexahydro-12H-pyrazino[2,1-c]pyrido[3,4-f][1,4]oxazepin-12-one]: 79 nM.
`C=CC(=O)N1CCN2C(=O)c3c(NC(C)C)nc(-c4c(O)cccc4F)c(Cl)c3OC[C@H]2C1` [Z75, (6aR)-8-acryloyl-4-chloro-1-(isopropylamino)-3-(2-fluoro-6-hydroxyphenyl)-6,6a,7,8,9,10-hexahydro-12H-pyrazino[2,1-c]pyrido[3,4-f][1,4]oxazepin-12-one]: the IC50 came out at 138 nM.
The same measure for `C=CC(=O)N1CCN2C(=O)c3c(N4CCOC5CC54)nc(-c4c(O)cccc4F)c(Cl)c3OC[C@H]2C1` (stereo partly drawn) [Z76, (6aR)-8-acryloyl-4-chloro-1-(2-oxa-5-azabicyclo[4.1.0]heptan-5-yl)-3-(2-fluoro-6-hydroxyphenyl)-6,6a,7,8,9,10-hexahydro-12H-pyrazino[2,1-c]pyrido[3,4-f][1,4]oxazepin-12-one]: 173 nM; for `C=CC(=O)N1CCN2C(=O)c3c(N4CC(=O)N(C)CC4C)nc(-c4c(O)cccc4F)c(Cl)c3OC[C@H]2C1` (stereo partly drawn) [Z221, (6aR)-8-acryloyl-4-chloro-1-(2,4-dimethyl-5-oxopiperazin-1-yl)-3-(2-fluoro-6-hydroxyphenyl)-6,6a,7,8,9,10-hexahydro-12H-pyrazino[2,1-c]pyrido[3,4-f][1,4]oxazepin-12-one]: 36 nM; for `C=CC(=O)N1CCN2C(=O)c3c(N4CCN(CC)C[C@@H]4C)nc(-c4c(O)cccc4F)c(Cl)c3OC[C@H]2C1` [Z236]: 113 nM.
`C=CC(=O)N1CCN2C(=O)c3c(N4CC(O)CC4(C)C)nc(-c4c(O)cccc4F)c(F)c3OC[C@H]2C1` (stereo partly drawn) [Z256, (6aR)-8-acryloyl-4-fluoro-3-(2-fluoro-6-hydroxyphenyl)-1-(4-hydroxy-2,2-dimethylpyrrolidin-1-yl)-6,6a,7,8,9,10-hexahydro-12H-pyrazino[2,1-c]pyrido[3,4-f][1,4]oxazepin-12-one] had an IC50 of 64 nM.
The same measure for `C=CC(=O)N1CCN2C(=O)c3c(N4CCN(CCO)C[C@@H]4C)nc(-c4c(O)cccc4F)c(Cl)c3OC[C@H]2C1` [Z257, (6aR)-8-acryloyl-4-chloro-3-(2-fluoro-6-hydroxyphenyl)-1-((S)-4-(2-hydroxyethyl)-2-methylpiperazin-1-yl)-6,6a,7 ,8,9,10-hexahydro-12H-pyrazino[2,1-c]pyrido[3,4-f][1,4]oxazepin-12-one]: 93 nM; for `C=CC(=O)N1CCN2C(=O)c3c(N4C[C@H](O)C[C@@H]4C)nc(-c4c(O)cccc4F)c(Cl)c3OC[C@H]2C1` [Z259, (6aR)-8-acryloyl-4-chloro-3-(2-fluoro-6-hydroxyphenyl)-1-((2S,4R)-4-hydroxy-2-methylpyrrolidin-1-yl)-6,6a,7,8,9,10-hexahydro-12H-pyrazino[2,1-c]pyrido[3,4-f][1,4]oxazepin-12-one]: 113 nM; for `C=CC(=O)N1CCN2C(=O)c3c(N4C[C@@H](O)C[C@@H]4C)nc(-c4c(O)cccc4F)c(Cl)c3OC[C@H]2C1` [Z260, (6aR)-8-acryloyl-4-chloro-3-(2-fluoro-6-hydroxyphenyl)-1-((2S,4S)-4-hydroxy-2-methylpyrrolidin-1-yl)-6,6a,7,8,9,10-hexahydro-12H-pyrazino[2,1-c]pyrido[3,4-f][1,4]oxazepin-12-one]: 33 nM.
Regarding `C=CC(=O)N1CCN2C(=O)c3c(N4CCN(C)C(C)(C)C4)nc(-c4c(O)cccc4F)c(Cl)c3OC[C@H]2C1` [Z261, (6aR)-8-acryloyl-4-chloro-3-(2-fluoro-6-hydroxyphenyl)-1-(3,3,4-trimethylpiperazin-1-yl)-6,6a,7,8,9,10-hexahydro-12H-pyrazino[2,1-c]pyrido[3,4-f][1,4]oxazepin-12-one], the IC50 came to 150 nM.
The same measure for `C=CC(=O)N1CCN2C(=O)c3c(N4CCNC(C)C4C)nc(-c4c(O)cccc4F)c(Cl)c3OC[C@H]2C1` (stereo partly drawn) [Z308, (6aR)-8-acryloyl-4-chloro-1-(2,3-dimethylpiperazin-1-yl)-3-(2-fluoro-6-hydroxyphenyl)-6,6a,7,8,9, 10-hexahydro-12H-pyrazino[2,1-c]pyrido[3,4-f][1,4]oxazepin-12-one]: 167 nM.
Under `C=CC(=O)N1CCN2C(=O)c3c(N4CCN(C)C(C)C4C)nc(-c4c(O)cccc4F)c(Cl)c3OC[C@H]2C1` (stereo partly drawn) [Z308a, (6aR)-8-acryloyl-4-chloro-3-(2-fluoro-6-hydroxyphenyl)-1-(2,3,4-trimethylpiperazin-1-yl)-6,6a,7,8,9,10-hexahydro-12H-pyrazino[2,1-c]pyrido[3,4-f][1,4]oxazepin-12-one] stands 111 nM.
Under `C=CC(=O)N1CCN2C(=O)c3c(C4NCCN5C(=O)CCC45C)nc(-c4c(O)cccc4F)c(Cl)c3OC[C@H]2C1` (stereo partly drawn) [Z337, (6aR)-8-acryloyl-4-chloro-3-(2-fluoro-6-hydroxyphenyl)-1-(8a-methylhexahydropyrrolo[1,2-a]pyrazin-6 (2H)-one-1-yl)-6,6a,7,8,9,10-hexahydro-12H-pyrazino[2,1-c]pyrido[3,4-f][1,4]oxazepin-12-one] stands 58 nM; under `C=CC(=O)N1CCN2C(=O)c3c(N4CCN(C)C(C)(C)C4)nc(-c4ccccc4F)c(Cl)c3OC[C@H]2C1` [Z463, (R)-8-acryloyl-4-chloro-3-(2-fluorophenyl)-1-(3,3,4-trimethylpiperazin-1-yl)-6,6a,7,8,9,10-hexahydro-12H-pyrazino[2,1-c]pyrido[3,4-f][1,4]oxazepin-12-one, formate], 760 nM; under `C=CC(=O)N1CCN2C(=O)c3c(N4CC(N(C)CC(F)F)CC4(C)C)nc(-c4ccccc4F)c(Cl)c3OC[C@H]2C1` (some centres unmarked) [Z659], 19.4 nM.
